Type in all cases: functional
The subject of experiment [1] is Acinetobacter baumannii. Briefly: Antimicrobial activity against efflux pump CraA deficient Acinetobacter baumannii JVAB01 receiving pJV103 harboring open reading frame orf3 encoded efflux pump CraA in presence of efflux pump inhibitor phenyl-arginine-beta-naphthylamide by Etest.
For experiment [2], the system named is Acinetobacter baumannii. The experiment can be described thus: Antimicrobial activity against Acinetobacter baumannii JVAB01 expressing disrupted open reading frame orf3 mutant deficient in efflux pump CraA by Etest.
In experiment [3] the test system is Acinetobacter baumannii. Briefly: microbe, parasite or virus in culture. Conditions: ATCC 19606.
Description: Antimicrobial activity against Acinetobacter baumannii ATCC 19606 expressing open reading frame orf3 encoded efflux pump CraA by Etest
Experiment [4] concerns Acinetobacter baumannii. Briefly: Antimicrobial activity against Acinetobacter baumannii JVAB01 expressing disrupted open reading frame orf3 mutant deficient in efflux pump CraA in presence of efflux pump inhibitor phenyl-arginine-beta-naphthylamide by Etest.
The subject of experiment [5] is Acinetobacter baumannii. The experiment can be described thus: Antimicrobial activity against efflux pump CraA deficient Acinetobacter baumannii JVAB01 receiving pJV103 harboring open reading frame orf3 encoded efflux pump CraA by Etest.
For experiment [6], the system named is Acinetobacter baumannii. The experiment can be described thus: Antimicrobial activity against Acinetobacter baumannii ATCC 19606 expressing open reading frame orf3 encoded efflux pump CraA in presence of efflux pump inhibitor phenyl-arginine-beta-naphthylamide by Etest.

Values after ≈ are worked out from the molar mass of the structure shown. Bounds are passed on as bounds.

Consider `O=C(N[C@H](CO)[C@H](O)c1ccc([N+](=O)[O-])cc1)C(Cl)Cl` [CHLORAMPHENICOL], for which the MIC in experiment [1] was 16 µg/mL; in experiment [2], 2 µg/mL (≈ 6.19 µM); in experiment [3], above 256 µg/mL; in experiment [4], 1.5 µg/mL; in experiment [5], 192 µg/mL (≈ 594 µM); in experiment [6] it was 32 µg/mL.

As for `O=C(O)c1cn(C2CC2)c2cc(N3CCNCC3)c(F)cc2c1=O` [CIPROFLOXACIN], the MIC in experiment [2], in experiment [3] and in experiment [5] was 0.25 µg/mL (≈ 0.754 µM) throughout.

As to `CCC[C@@H]1C[C@@H](C(=O)N[C@@H]([C@H]2O[C@H](SC)[C@H](O)[C@@H](O)[C@H]2O)[C@H](C)Cl)N(C)C1` [CLINDAMYCIN], the MIC in experiment [2], in experiment [3] and in experiment [5] was above 256 µg/mL each time.

As to `CC[C@H]1OC(=O)[C@H](C)[C@@H](O[C@H]2C[C@@](C)(OC)[C@@H](O)[C@H](C)O2)[C@H](C)[C@@H](O[C@@H]2O[C@H](C)C[C@H](N(C)C)[C@H]2O)[C@](C)(O)C[C@@H](C)C(=O)[C@H](C)[C@@H](O)[C@]1(C)O` [ERYTHROMYCIN], the MIC in experiment [2], in experiment [3] and in experiment [5] was 1.5 µg/mL (≈ 2.04 µM) throughout.

With `C[C@@H](O)[C@H]1C(=O)N2C(C(=O)O)=C(SCCNC=N)C[C@H]12` [IMIPENEM ANHYDROUS], the MIC in experiment [2], in experiment [3] and in experiment [5] was 0.75 µg/mL (≈ 2.51 µM) each time.

Consider `CCn1cc(C(=O)O)c(=O)c2ccc(C)nc21` [NALIDIXIC ACID], for which the MIC in experiment [2], in experiment [3] and in experiment [5] was 12 µg/mL (≈ 51.7 µM) in each case.

`CCn1cc(C(=O)O)c(=O)c2cc(F)c(N3CCNCC3)cc21` [NORFLOXACIN]: the MIC in experiment [2], in experiment [3] and in experiment [5] was 6 µg/mL (≈ 18.8 µM) in each case.

`CN(C)[C@@H]1C(O)=C(C(N)=O)C(=O)[C@@]2(O)C(O)=C3C(=O)c4c(O)cccc4[C@@](C)(O)[C@H]3C[C@@H]12` [TETRACYCLINE]: the figures for the MIC in experiment [2], in experiment [3] and in experiment [5] were 6 µg/mL (≈ 13.5 µM), 6 µg/mL (≈ 13.5 µM) and 96 µg/mL (≈ 216 µM), respectively.

(Values after ChEMBL document CHEMBL1649205, “CraA, a major facilitator superfamily efflux pump associated with chloramphenicol resistance in Acinetobacter baumannii” (2009).)
